{"source": "paper PMC9975698", "about": "“Hyperoside alleviates toxicity of β-amyloid via endoplasmic reticulum-mitochondrial calcium signal transduction cascade in APP/PS1 double transgenic Alzheimer's disease mice” (Redox Biology, 2023)", "key": {"β-secretase": {"target": "T1, β-secretase (Mus musculus, UniProt P56818)", "T1 construct": "50 μL supernatant (cell lysate) was transferred to each well in the 96-well plate; endogenous in cells; host or cells: HT22 cells", "T1 sequence (P56818 46-501)": "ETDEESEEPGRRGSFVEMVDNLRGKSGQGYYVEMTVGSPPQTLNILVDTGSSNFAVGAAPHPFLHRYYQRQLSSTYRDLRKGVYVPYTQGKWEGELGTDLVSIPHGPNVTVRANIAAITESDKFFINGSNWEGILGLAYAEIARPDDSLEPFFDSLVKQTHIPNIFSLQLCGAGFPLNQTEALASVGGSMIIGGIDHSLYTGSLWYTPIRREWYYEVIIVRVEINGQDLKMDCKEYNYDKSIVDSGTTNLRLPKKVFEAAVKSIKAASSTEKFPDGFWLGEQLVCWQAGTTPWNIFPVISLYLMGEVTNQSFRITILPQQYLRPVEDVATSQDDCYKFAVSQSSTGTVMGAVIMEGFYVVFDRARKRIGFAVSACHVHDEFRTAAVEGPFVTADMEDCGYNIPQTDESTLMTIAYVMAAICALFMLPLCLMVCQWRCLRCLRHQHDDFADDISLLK", "test": "BACE-1 inhibition assay (β-secretase activity in HT22 cell lysate)", "assay_type": "cell-based", "settings": "HT22 cells, HYP 20–80 μM, 24 h", "procedure": "The assay was performed in a 96-well flat-bottom white plate using β-Secretase Activity Fluorometric Assay Kit (Biovision, CA, USA). To begin, HT22 cells were treated with HYP (20–80 μM) for 24 h and then collected by centrifugation with ice-cold extraction buffer added for homogenization. After centrifugation, 50 μL supernatant (cell lysate) was transferred to each well in the 96-well plate. 2 μL of active β-secretase (protein concentration: 4 μg/μL) was added to the 50 μL of extraction buffer as the positive control. For negative control, 2 μL of the β-secretase inhibitor was added to the 50 μL of sample well. 2 μL of each of the tested samples were added into each sample well for inhibitory activity evaluation. Following compounds addition, 50 μL of 2X reaction buffer was added with a gentle mix and incubation for 20 min at 37 °C before adding 2 μL of the β-secretase substrate. The plate was then covered and incubated in the dark at 37 °C for 1 h. Samples were then measured in a fluorescent 96-well plate reader (Ex/Em = 345/500 nm). Background readings produced from the substrate without adding secretase were subtracted from all samples."}, "[1]": {"test": "Pharmacokinetics in serum after IV or IN administration", "assay_type": "in vivo", "settings": "20 mg/kg, mice; for AUC(0-t) / Cmax / Tmax / k el / half-life: mouse, serum; for k el: read-out: Serum Ke (converted); for half-life: read-out: Serum t1/2 (converted)", "procedure": "After tail vein injection or nasal administration, blood was collected at 5, 15 and 30 min, 1, 2, 4, 8, 12, 24, 48, 72, 120 and 168 h, for immediate centrifugation at 14,000 rpm for 5 min. The serum was harvested and stored at −20 °C until further processing. Brain tissue was collected and was thoroughly rinsed in saline to eliminate blood and blotted dry with filter paper. Each tissue sample was homogenized in saline (1:5, w/v) and stored at −20 °C until analysis. 50 μL of serum or 100 μL of brain tissue was put in a 1.5 mL EP tube, followed by the addition of 20 μL of internal standard solution (10 μM ISO). The protein was precipitated with 1 mL of ethyl acetate, vortexed for 5 min and centrifuged at 20,000 g (4 °C and 10 min). The supernatant solution was nitrogen blown to dry and re-suspended with 100 μL of 50% acetonitrile for centrifugation again. The supernatant was taken for analysis by using LC-MS/MS. HYP content was quantified using UHPLC-MS/MS system, which includes Agilent 1290 Infinity UHPLC, and Agilent 6460 Triple Quadrupole, equipped with an electrospray ionization interface used to generate positive ions for the determination of HYP. The compounds were analyzed by using the Agilent Zorbax Eclipse Plus C-18 column with a particle size of […] (flow rate: 0.35 mL/min). The mobile phase was set as follows: mobile phase A (0.1% formic acid in water) and mobile phase B (0.1% formic acid in ACN): 0–3 min, 10–30% B; 3–4 min, 70% B; 4–5 min, 30–70% B; 5–6 min, 70-10% B. The column and auto-sampler temperature were maintained at 30 °C and 4 °C, respectively. Data were analyzed by using Agilent MassHunter Workstation software B.01.03. The gas temperature was set at 300 °C with a flow rate of 11 L/min. Gases were set at 30 psi for the nebulizer, capillary, at 4000 V. For the HYP, the fragment was 170. The collision energy was set at 30; The mass transitions were as follows based on multiple reaction monitoring: m/z 464.38 → 299.9. For the Isorhamnetin (ISO), the fragment was 150. The collision energy was set at 30; The mass transitions were as follows based on multiple reaction monitoring: m/z 315.4 → 300.1, The measurements of HYP were done using the standard and linear least-squares regression curve."}, "APP/PS1 mice": {"tested_on": "APP/PS1 mice", "test": "Fear-conditioning test", "assay_type": "in vivo", "settings": "HYP nasal, every 3 days, 8 weeks", "procedure": "All animal care and experimental procedures were performed in accordance with the “Institutional Animal Care and User Committee Guidelines” of the Macau University of Science and Technology. APP/PSEN1 (APP/PS1) mice (N000175) were purchased from the Nanjing Institute of Biomedical Sciences, Nanjing University, China, weighing 25 ± 5 g. The animals were housed in a temperature-controlled room with a 12 h light/dark cycle and given ad libitum food and water. Male mice were randomly divided into the following 6 experimental groups. (a) wild-type group (n = 6), (b) APP/PS1 group (n = 6), (c) HYP (20 mg/kg group) (n = 7), (d) HYP (40 mg/kg) group (n = 8), (e) HYP (80 mg/kg) group (n = 8) and (f) memantine (MEM) (10 mg/kg) positive control group (n = 8). HYP was dissolved in the solvent containing 10% DMSO, 40% PEG300 and 5% Tween-80 in PBS, and administrated via nasal injection for every 3 days with a volume of 0.5 μL/g of body weight for 8 consecutive weeks. The fear conditioning test measures the ability of mice to learn and remember associations between aversive experiences and the environment. On the first day of the fear conditioning test (Yuyan, Shanghai, China), mice were placed in a chamber for 5 min to acclimatize and explore. […] Responses were recorded with a video camera and scored for resting time, which was defined as the absence of any movement other than breathing."}, "HT22 cells": {"tested_on": "HT22 cells", "test": "Cytotoxicity (MTT) assay", "assay_type": "cell-based", "procedure": "Cytotoxicity was assessed using the MTT (5.0 mg/mL) assay. 4 × 10^3 HT22 cells per well were seeded in 96-well plates. After overnight incubation, cells were treated with Aβ aggregates (30 μM) for 48 h with or without the presence of HYP (20–80 μM). Cells were treated with DMSO as a control. Subsequently, MTT (10 μL) was added to each well for 4 h, followed by the addition of 100 μL of lysis buffer (10% SDS in 0.01 mol/L hydrochloric acid) and overnight incubation. The absorbance was measured at 570 nm the next day. The formula was calculated as a percentage of cell viability: Cell viability (%) = A (treatded) / A (control) × 100%. Data were obtained from three independent experiments in triplicate."}}, "note": "Read-outs that look alike come from different tables or passages of the source."}
{"smiles": "O=c1c(O[C@@H]2O[C@H](CO)[C@H](O)[C@H](O)[C@H]2O)c(-c2ccc(O)c(O)c2)oc2cc(O)cc(O)c12", "note": "[HYP, Quercetin-3-O-β-D-galactopyranoside]", "values": [{"measurement": "β-secretase activity", "setting": "β-secretase", "result": "inhibited β-secretase activity"}, {"measurement": "Serum F (AUCIN/AUCIV ratio)", "setting": "[1]; IN", "result": 23.2, "unit": "%"}, {"measurement": "AUC(0-t)", "setting": "[1]; inhaled or intranasal, IN", "result": "5500 ± 1220", "unit": "µg·h/mL"}, {"measurement": "Cmax", "setting": "[1]; inhaled or intranasal, IN", "result": "300 ± 102", "unit": "µg/mL"}, {"measurement": "Tmax", "setting": "[1]; inhaled or intranasal, IN", "result": 0.5, "unit": "h"}, {"measurement": "k el", "setting": "[1]; inhaled or intranasal, IN", "result": "1.67e-05", "unit": "s⁻¹"}, {"measurement": "half-life", "setting": "[1]; inhaled or intranasal, IN", "result": "25.6 ± 12.5", "unit": "h"}, {"measurement": "AUC(0-t)", "setting": "[1]; IV", "result": "23700 ± 1740", "unit": "µg·h/mL"}, {"measurement": "Cmax", "setting": "[1]; IV", "result": "1160 ± 268", "unit": "µg/mL"}, {"measurement": "Tmax", "setting": "[1]; IV", "result": 0.08, "unit": "h"}, {"measurement": "k el", "setting": "[1]; IV", "result": 0.000103, "unit": "s⁻¹"}, {"measurement": "half-life", "setting": "[1]; IV", "result": "1.85 ± 1.25", "unit": "h"}, {"measurement": "freezing time in fear conditioning test", "setting": "APP/PS1 mice", "result": "significantly decreased the freezing time"}, {"measurement": "cellular toxicity of HYP alone (MTT)", "setting": "HT22 cells; HYP 20–80 μM", "result": "no obvious cellular toxicity was observed"}, {"measurement": "cell viability with aggregated Aβ co-treatment (MTT and flow cytometry)", "setting": "HT22 cells; HYP 20–80 μM + aggregated Aβ 30 μM", "result": "increased the cell viability in a dose-dependent manner"}]}
